The record followed here is patent US9504674B2, “TrkB agonists and methods of use” (EMORY UNIVERSITY, priority 2010, dated 2016).

For assay [1], the system named is dentate gyrus progenitor proliferation. As to the kind of experiment: Neurogenesis assay (BrdU positive cells in dentate gyrus). The note with it: 5 mg/kg oral for 21 days, BrdU 50 mg/kg i.p., 2 h. The format is in vivo, mouse. Here is the method: 4′-Dimethylamino-7,8-dihydroxyflavone and 7,8-dihydroxyflavone promote neurogenesis. Male C57BL/6J mice were orally administrated with 5 mg/kg 4′-DMA-7,8-DHF and 7,8-DHF and vehicle solvent for 21 days and followed by 50 mg/kg BrdU ip injection. In 2 h, the mice were perfused and brain sections were immunostained with anti-BrdU and DAPI. The positive cells in dentate gyms were highlighted by arrow (left panels). Quantitative analysis of the BrdU positive cells in dentate gyms (right panel).
Adult male mice (2-3 months old) were orally injected with Saline, 4′-DMA-7,8-DHF and 7,8-DHF (5 mg/kg) for 21 days. Then Brdu (50 mg/kg) was i.p. injected. In 2 h, the mice were perfused with 4% paraformaldehyde. Immunohistochemical staining was performed on formalin-fixed paraffin-embedded sections. Sections from brain were cut, deparaffinized in xylene and rehydrated in graded alcohols. The slides were boiled in 10 mM citric acid (pH 6.0) for 10 min followed by an incubation in 2 N HCl for 10 min in room temperature. The slides were then permeabilized and blocked with 1% BSA in 0.2% PBST. The incorporated BrdU were stained using anti-BrdU-FITC (Abcam, USA) at 4° C. for 16 hr. […] The slides were finally mounted with AquaMount (Lerner Laboratories, USA) containing 0.01% 1,4-diazobicyclo(2,2,2)octane and examined under a fluorescence microscope. […]

Another assay concerns MAPK. As to the kind of experiment: MAPK phosphorylation in primary neurons (immunoblotting). The format is cell-based, rat. Conditions: 500 nM, time course. Here is the method: Rat primary neurons were treated with 500 nM. 4′-DMA-7,8-DHF from various time points. The neuronal lysates were analyzed with various antibodies. 4′-DMA-7,8-DHF rapidly activated TrkB and its downstream signaling cascades (left panels). […] One mg/kg of 4′-DMA-7,8-DHF and 7,8-DHF were orally administrated into C57 BL/6J mice and TrkB phosphorylation and its downstream signaling cascades including Akt and MAPK in mouse brain were analyzed by immunoblotting at various time points. TrkB activation by 4′-DMA-7,8-DHF peaked at 4 h, whereas the maximal TrkB activation by 7,8-DHF in mouse brain occurred at 1-2 h (middle panels).
To compare the TrkB activation by these synthetic compounds, primary cortical cultures were prepared. Cortical neurons were treated with 500 nM of various compounds for 20 min and cell lysates were collected. […] Replacing the H-bond acceptor O atom with hydrogen bond donor NH abolishes its stimulatory effect. […] On the other hand, 7,8-DHF provoked TrkB activation with the minimal concentration of 100 nM (FIG. 2B, right panels). To further study 4′-DMA-7,8-DHF's kinetics on TrkB activation, primary neurons were treated for various time points. 4′-DMA-7,8-DHF swiftly activated TrkB as soon as 5 minutes following treatment. […] TrkB activation was monitored at different time points.
A general note: A western blot detects proteins with antibodies after separation by electrophoresis.

In the case of `O=c1cc(-c2ccccc2)oc2c(O)c(O)ccc12` [7,8-DHF, 7,8-dihydroxyflavone, reference compound], the “neurogenesis (BrdU) compared to vehicle control” value in assay [1] is recorded as “significantly increased neurogenesis”.
Regarding `CN(C)c1ccc(-c2cc(=O)c3ccc(O)c(O)c3o2)cc1` [4′-DMA-7,8-DHF, 4′-dimethylamino-7,8-dihydroxyflavone], the “neurogenesis (BrdU) compared to vehicle control” value in assay [1] is “significantly increased neurogenesis”. Further, in the assay on MAPK, the “time of peak MAPK phosphorylation” value is 10 min.
